Where “and” joins values, the source holds several entries; their conditions need not be identical. Identical values can stand only once. Toxic doses and inconclusive results are not listed. The calls were made as follows: active = survival T/C of 150% or more; inactive = T/C below 125% in these data.
System: P388 leukemia ip, CD2F1 mice, survival T/C
Assay: NCI In Vivo Anticancer Drug Screen. Data for tumor model P388 Leukemia (intraperitoneal) in CD2F1 (CDF1) mice
Details: endpoint: median survival time, higher = longer survival
Outline: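 Mice carrying the transplanted tumor received test compound or vehicle. Survival was recorded in each group, and the value is the treated-group measurement divided by that of the vehicle-treated control group.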

[1] = dose: 25.0 mg/kg/injection, schedule: Q01DX009 (ip), vehicle: Klucel (hydroxypropylcellulose) (HPC)
[2] = dose: 50.0 mg/kg/injection, schedule: Q01DX009 (ip), vehicle: Klucel (hydroxypropylcellulose) (HPC)
[3] = dose: 12.5 mg/kg/injection, schedule: Q01DX009 (ip), vehicle: saline with Tween-80
[4] = dose: 60.0 mg/kg/injection, schedule: Q01DX005 (ip), vehicle: saline with Tween-80
[5] = dose: 240.0 mg/kg/injection, schedule: Q01DX005 (ip), vehicle: saline with Tween-80
[6] = dose: 25.0 mg/kg/injection, schedule: Q01DX009 (ip), vehicle: other
[7] = dose: 50.0 mg/kg/injection, schedule: Q01DX009 (ip), vehicle: other
[8] = dose: 120.0 mg/kg/injection, schedule: Q01DX005 (ip), vehicle: saline with Tween-80
[9] = dose: 50.0 mg/kg/injection, schedule: Q01DX005 (ip), vehicle: Klucel (hydroxypropylcellulose) (HPC)
[10] = dose: 100.0 mg/kg/injection, schedule: Q01DX005 (ip), vehicle: Klucel (hydroxypropylcellulose) (HPC)
[11] = dose: 200.0 mg/kg/injection, schedule: Q01DX005 (ip), vehicle: Klucel (hydroxypropylcellulose) (HPC)
[12] = dose: 50.0 mg/kg/injection, schedule: Q01DX009 (ip), vehicle: saline with Tween-80
[13] = dose: 200.0 mg/kg/injection, schedule: Q01DX009 (ip), vehicle: saline with Tween-80
[14] = dose: 100.0 mg/kg/injection, schedule: Q01DX009 (ip), vehicle: saline with Tween-80

Measured: T/C

N#CCCn1nnc2ccccc21
inactive: dose: 6.25 mg/kg/injection, schedule: Q01DX009 (ip), vehicle: Klucel (hydroxypropylcellulose) (HPC) 91 % of control | dose: 12.5 mg/kg/injection, schedule: Q01DX009 (ip), vehicle: Klucel (hydroxypropylcellulose) (HPC) 94 % of control | [1] 95 % of control | [2] 88 % of control

Cl/N=C1C=C/C(=N\Cl)C=C/1Cl
inactive: dose: 6.25 mg/kg/injection, schedule: Q01DX005 (ip), vehicle: saline with Tween-80 110 % of control | dose: 12.5 mg/kg/injection, schedule: Q01DX005 (ip), vehicle: saline with Tween-80 110 % of control | dose: 25.0 mg/kg/injection, schedule: Q01DX005 (ip), vehicle: saline with Tween-80 107 % of control

Cn1c([N+](=O)[O-])cnc1/C=C1\CCc2cc(OCCN3CCCC3)ccc2C1=O
inactive: [3] 90 % of control | dose: 25.0 mg/kg/injection, schedule: Q01DX009 (ip), vehicle: saline with Tween-80 93 % of control

Cc1cc(C)c2c(n1)sc1c(=O)n(N)c(C)nc12
inactive: [4] 87 % of control | [5] 94 % of control and 95 % of control

CC(=O)OC1(C)CC(C)C(=O)C(C(O)CC2CC(=O)NC(=O)C2)C1 (stereo not drawn)
inactive: dose: 130.0 micrograms/kg/injection, schedule: Q01DX009 (ip), vehicle: saline 111 % of control | dose: 1300.0 micrograms/kg/injection, schedule: Q04DX003 (ip), vehicle: saline 120 % of control | dose: 2160.0 micrograms/kg/injection, schedule: Q04DX003 (ip), vehicle: saline 113 % of control | dose: 3600.0 micrograms/kg/injection, schedule: Q04DX003 (ip), vehicle: saline 113 % of control and 119 % of control | dose: 6000.0 micrograms/kg/injection, schedule: Q04DX003 (ip), vehicle: saline 118 % of control

CN(CCCc1nc2ccccc2[nH]1)N=O
inactive: dose: 100.0 mg/kg/injection, schedule: Q04DX003 (ip), vehicle: Klucel (hydroxypropylcellulose) (HPC) 100 % of control | dose: 200.0 mg/kg/injection, schedule: Q04DX003 (ip), vehicle: Klucel (hydroxypropylcellulose) (HPC) 101 % of control | dose: 400.0 mg/kg/injection, schedule: Q04DX003 (ip), vehicle: Klucel (hydroxypropylcellulose) (HPC) 100 % of control

COC(=O)C1=C/CCCN(CCC2OCCO2)/C=C\1C(=O)OC
inactive: dose: 100.0 mg/kg/injection, schedule: Q04DX003 (ip), vehicle: saline with Tween-80 106 % of control | dose: 200.0 mg/kg/injection, schedule: Q04DX003 (ip), vehicle: saline with Tween-80 99 % of control | dose: 400.0 mg/kg/injection, schedule: Q04DX003 (ip), vehicle: saline with Tween-80 108 % of control

CC(/C=C/c1ccco1)=N\O
inactive: dose: 12.5 mg/kg/injection, schedule: Q01DX009 (ip), vehicle: other 104 % of control | [6] 100 % of control | [7] 91 % of control

c1ccc(OCc2nn3c(-c4ccccc4)nnc3s2)cc1
inactive: [4] 107 % of control | [8] 94 % of control | [5] 93 % of control

C=C(C)c1nc(N)nc(-c2cccc(-c3nc(N)nc(C(=C)C)n3)c2)n1
inactive: [9] 95 % of control | [10] 99 % of control | [11] 100 % of control

CCO/C=C(\C#N)S(=O)(=O)/C(C#N)=C/OCC
inactive: dose: 100.0 mg/kg/injection, schedule: Q04DX002 (ip), vehicle: saline 108 % of control | dose: 200.0 mg/kg/injection, schedule: Q04DX002 (ip), vehicle: saline 101 % of control

CCCCCCC(=O)/C=C/c1ccc(OC(=O)c2ccccc2)cc1
inactive: dose: 50.0 mg/kg/injection, schedule: Q01DX009 (ip), vehicle: saline 97 % of control | dose: 100.0 mg/kg/injection, schedule: Q01DX009 (ip), vehicle: saline 97 % of control | dose: 200.0 mg/kg/injection, schedule: Q01DX009 (ip), vehicle: saline 110 % of control

CCC1CC(C)C(O)/C=C/C=C/CC(C)OC(=O)CC(O)C(OC)C1OC1OC(C)CC(O)(C(C)=O)C1O (stereo not drawn)
inactive: dose: 25.0 mg/kg/injection, schedule: Q01DX005 (ip), vehicle: Klucel (hydroxypropylcellulose) (HPC) 104 % of control | [9] 104 % of control | [10] 102 % of control | [11] 101 % of control

COC(=O)C(=O)C(C(=O)C=C(C)C)c1nc2n(c1O)C(=N)N=N2 (stereo not drawn)
inactive: dose: 60.0 mg/kg/injection, schedule: Q01DX005 (ip), vehicle: saline 116 % of control | dose: 120.0 mg/kg/injection, schedule: Q01DX005 (ip), vehicle: saline 107 % of control | dose: 240.0 mg/kg/injection, schedule: Q01DX005 (ip), vehicle: saline 104 % of control

O=C(Nc1cccnc1)c1cccc([N+](=O)[O-])c1
inactive: [4] 100 % of control | [8] 98 % of control | [5] 97 % of control

CS/C(=N/N=C(\C)c1ccccn1)[Se][Se]/C(=N/N=C(\C)c1ccccn1)SC
inactive: dose: 6.25 mg/kg/injection, schedule: Q01DX009 (ip), vehicle: saline with Tween-80 90 % of control | [3] 97 % of control | [12] 93 % of control | [13] 93 % of control

COc1cc2c(c(O)c1OC)-c1c(cc(OC)c(OC)c1OC)CC(C)C(C)C2 (stereo not drawn)
inactive: dose: 11.25 mg/kg/injection, schedule: Q01DX009 (ip), vehicle: saline + alcohol 100 % of control and 95 % of control | dose: 11.3 mg/kg/injection, schedule: Q01DX009 (ip), vehicle: saline + alcohol 106 % of control | dose: 22.5 mg/kg/injection, schedule: Q01DX009 (ip), vehicle: saline + alcohol 101 % of control and 115 % of control and 96 % of control | dose: 45.0 mg/kg/injection, schedule: Q01DX009 (ip), vehicle: saline + alcohol 106 % of control and 121 % of control and 97 % of control | dose: 90.0 mg/kg/injection, schedule: Q01DX009 (ip), vehicle: saline + alcohol 113 % of control and 121 % of control and 92 % of control | dose: 180.0 mg/kg/injection, schedule: Q01DX009 (ip), vehicle: saline + alcohol 96 % of control

CCCNc1nc(C)nc2[nH]c(Cc3ccccc3)c(C)c12
inactive: [9] 97 % of control | [10] 100 % of control | [11] 100 % of control

CCC/C=c1/[nH]c(=O)/c(=C\c2ccc(OC)cc2)[nH]c1=O
inactive: [1] 101 % of control | [2] 96 % of control | dose: 100.0 mg/kg/injection, schedule: Q01DX009 (ip), vehicle: Klucel (hydroxypropylcellulose) (HPC) 102 % of control

CC(C)C(=NC1CCCCC1)NC(C)(C)C
inactive: [12] 93 % of control | [14] 99 % of control

NCCn1[nH]c(=O)c2cccnc2c1=O
inactive: dose: 100.0 mg/kg/injection, schedule: Q04DX002 (ip), vehicle: saline with Tween-80 100 % of control | dose: 200.0 mg/kg/injection, schedule: Q04DX002 (ip), vehicle: saline with Tween-80 95 % of control | dose: 400.0 mg/kg/injection, schedule: Q04DX002 (ip), vehicle: saline with Tween-80 101 % of control

O=C(O)Cn1ccnc1[N+](=O)[O-]
inactive: dose: 12.5 mg/kg/injection, schedule: Q01DX009 (ip), vehicle: distilled water + Tween-80 100 % of control | dose: 25.0 mg/kg/injection, schedule: Q01DX009 (ip), vehicle: distilled water + Tween-80 100 % of control | dose: 50.0 mg/kg/injection, schedule: Q01DX009 (ip), vehicle: distilled water + Tween-80 118 % of control | dose: 100.0 mg/kg/injection, schedule: Q01DX009 (ip), vehicle: distilled water + Tween-80 90 % of control | dose: 200.0 mg/kg/injection, schedule: Q01DX009 (ip), vehicle: distilled water + Tween-80 109 % of control

CN(C)c1ccc(/C=C2\SC(=S)N(CCCN3CCOCC3)C2=O)cc1
inactive: [12] 91 % of control | [14] 90 % of control | [13] 87 % of control

Cc1ccccc1N=Nc1c(O)n(-c2ccc(Br)cc2)c(=S)n(-c2ccccc2)c1=O
inactive: dose: 100.0 mg/kg/injection, schedule: Q01DX001 (ip), vehicle: saline with Tween-80 98 % of control | dose: 200.0 mg/kg/injection, schedule: Q01DX001 (ip), vehicle: saline with Tween-80 98 % of control | dose: 400.0 mg/kg/injection, schedule: Q01DX001 (ip), vehicle: saline with Tween-80 89 % of control

CCCCCCCCCC1=C(C#N)C(=O)OCCN1C
inactive: [4] 92 % of control | [8] 93 % of control

C=CCN(CC=C)c1cc(Cl)nnc1Cl
inactive: [6] 104 % of control | [7] 102 % of control | dose: 100.0 mg/kg/injection, schedule: Q01DX009 (ip), vehicle: other 103 % of control | dose: 200.0 mg/kg/injection, schedule: Q01DX009 (ip), vehicle: other 109 % of control

CC(C)(C)N1CCC1C(=O)O (stereo not drawn)
inactive: [12] 92 % of control | [14] 94 % of control | [13] 88 % of control | dose: 400.0 mg/kg/injection, schedule: Q01DX009 (ip), vehicle: saline with Tween-80 87 % of control

Reference: PubChem BioAssay AID330 (DTP/NCI, 2004)
